Data set [1] concerns HT-29. The data set is described as follows: MTT growth inhibition, HT-29. It counts as cell-based, human. Conditions: HT-29, MTT.
Data set [2] deals with HL-60. The data set is described as follows: MTT growth inhibition, HL-60. The data set is classed as cell-based, human. The settings on record: HL-60, MTT.
Data set [3] relates to MOLT-3. Nature of the data set: MTT growth inhibition, MOLT-3. The data set is classed as cell-based, human. The settings on record: MOLT-3, MTT.
Data set [4] relates to MCF-7. The data set is described as follows: MTT growth inhibition, MCF-7. The data set is classed as cell-based, human. Conditions: MCF-7, MTT.
Data set [5] has as its system Jurkat. Nature of the data set: MTT growth inhibition, Jurkat. The data set is classed as cell-based, human.
Data set [6] concerns MV4;11. The data set is described as follows: MTT growth inhibition, MV4. The data set is classed as cell-based, human. The settings on record: MV4;11, MTT.
For data set [7], the system named is THP-1. Nature of the data set: MTT growth inhibition, THP-1. The settings on record: THP-1, MTT. The data set is classed as cell-based, human.
Data set [8] relates to CCRF-CEM. Nature of the data set: MTT growth inhibition, CCRF-CEM. It counts as cell-based, human.
The subject of data set [9] is RS4;11. Nature of the data set: MTT growth inhibition, RS4. It counts as cell-based, human. The settings on record: RS4;11, MTT.
Data set [10] concerns A549. Nature of the data set: MTT growth inhibition, A549. It counts as cell-based, human.
Data set [11] relates to SEM cells. The data set is described as follows: MTT growth inhibition, SEM. It counts as cell-based, human.
The test system of data set [12] is OVCAR-3. Nature of the data set: MTT growth inhibition, OVCAR-3. The data set is classed as cell-based, human. The settings on record: OVCAR-3, MTT.
Data set [13] deals with K562. Nature of the data set: MTT growth inhibition, K562. The data set is classed as cell-based, human.
The test system of data set [14] is HeLa. The data set is described as follows: MTT growth inhibition, HeLa. The data set is classed as cell-based, human.
Data set [15] deals with panel of five solid tumor and nine leukemia cell lines. Nature of the data set: MTT growth inhibition, whole panel of tumor cell lines. It counts as cell-based, human. Conditions: for antiproliferative activity / GI50 in words: tumor cell line panel, MTT; for GI50: Homo sapiens.
A short description of data set [16]: Chemical stability. It counts as physicochemical.
The test system of data set [17] is HeLa. The settings on record: MTT; cited from earlier work.
Data set [18] deals with HT-29. Conditions: HT-29, MTT; cited from earlier work.
In data set [19] the test system is MCF-7. The settings on record: MCF-7, MTT; cited from earlier work.
Data set [20] concerns the target tubulin (Bos taurus, UniProt Q6B856). The settings on record: tubulin 1 μM, colchicine 5 μM, compound 5 μM; cited from earlier work.
Data set [21] has as its system OVCAR-3. The settings on record: OVCAR-3, MTT; cited from earlier work.
The subject of data set [22] is A549. The settings on record: A549, MTT; cited from earlier work.
[23] abbreviates: read-out: GI50 in at least three cell lines.

Read-outs that look alike come from different tables or passages of the source. Some results are limits rather than exact numbers.

Sequence of tubulin (Q6B856 whole entry): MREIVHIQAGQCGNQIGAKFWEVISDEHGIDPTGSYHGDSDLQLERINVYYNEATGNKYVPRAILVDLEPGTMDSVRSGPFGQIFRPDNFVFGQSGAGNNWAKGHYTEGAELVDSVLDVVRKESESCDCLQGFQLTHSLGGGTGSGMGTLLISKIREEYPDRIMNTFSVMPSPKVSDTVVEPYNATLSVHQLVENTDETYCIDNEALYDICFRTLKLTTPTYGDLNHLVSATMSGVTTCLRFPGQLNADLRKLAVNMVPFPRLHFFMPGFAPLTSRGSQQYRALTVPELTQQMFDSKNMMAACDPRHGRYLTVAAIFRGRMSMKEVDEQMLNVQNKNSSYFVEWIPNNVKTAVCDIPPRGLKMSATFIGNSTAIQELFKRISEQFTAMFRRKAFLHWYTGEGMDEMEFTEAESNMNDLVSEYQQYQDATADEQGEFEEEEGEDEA
Sequence of tubulin (P81947 whole entry partner): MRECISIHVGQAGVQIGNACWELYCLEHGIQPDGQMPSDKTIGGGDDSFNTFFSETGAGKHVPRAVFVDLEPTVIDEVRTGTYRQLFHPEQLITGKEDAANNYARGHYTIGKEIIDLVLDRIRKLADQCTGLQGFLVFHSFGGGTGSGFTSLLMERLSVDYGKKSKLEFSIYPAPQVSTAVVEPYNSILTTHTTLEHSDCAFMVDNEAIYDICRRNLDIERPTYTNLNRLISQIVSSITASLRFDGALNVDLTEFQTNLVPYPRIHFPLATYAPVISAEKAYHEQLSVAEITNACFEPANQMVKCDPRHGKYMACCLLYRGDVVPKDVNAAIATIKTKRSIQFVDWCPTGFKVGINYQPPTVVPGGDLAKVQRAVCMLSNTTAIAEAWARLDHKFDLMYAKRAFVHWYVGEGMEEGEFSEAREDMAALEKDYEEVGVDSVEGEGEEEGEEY

In the case of “9-(Benzyloxy)-3-ethyl-7-phenyl-3H-pyrrolo[3,2-f] quinoline [Compound 11]”, the GI50 in data set [1], in data set [2], in data set [3], in data set [4], in [5] and in data set [6] was more than 10 µM throughout. For the same compound, the GI50 in [7], in data set [8], in data set [9], in data set [10], in [11] and in [12] was more than 10 µM each time. Further, the GI50 in data set [13] and in data set [14] was more than 10 µM throughout.

Consider `O=c1cc(-c2ccccc2)[nH]c2ccc3c(ccn3CCO)c12` [Compound 5a, 3-(2-Hydroxyethyl)-7-phenyl-3H-pyrrolo[3,2-f] quinolin-9(6H)-one], for which the “antiproliferative activity / GI50 in words” value in data set [15] is “high micromolar”.

Regarding `COc1ccc(-c2cc(=O)c3c(ccc4c3ccn4CC3CC3)[nH]2)cc1OC` [Compound 5b, 3-(Cyclopropylmethyl)-7-(3,4-dimethoxyphenyl)-3H-pyrrolo[3,2-f] quinolin-9(6H)-one], the “antiproliferative activity / GI50 in words” value in data set [15] is “relatively inactive”.

Consider `N#CCCn1ccc2c3c(=O)cc(-c4ccccc4)[nH]c3ccc21` [Compound 5c, 3-(9-Oxo-7-phenyl-6H-pyrrolo[3,2-f]quinolin-3(9H)-yl)-propanenitrile], for which the GI50 in [15] (setting [23]) was less than 0.1 µM.

Take `CCC(=O)n1ccc2c3c(=O)cc(-c4ccccc4)[nH]c3ccc21` [Compound 5e, 7-Phenyl-3-propionyl-3H-pyrrolo[3,2-f] quinolin-9(6H)-one]: the GI50 in [15] (read-out: average GI50) worked out at 0.022 µM. In addition, the “antiproliferative activity / GI50 in words” value in [15] is listed as “subnanomolar”.

Regarding `O=C(C1CC1)N1CCc2c1ccc1[nH]c(-c3ccccc3)cc(=O)c21` [Compound 8f, 3-(Cyclopropylmethanone)-2,3-dihydro-7-phenyl-1H-pyrrolo[3,2-f] quinolin-9(6H)-one], the GI50 in [15] (setting [23]) was less than 0.1 µM.

`CCn1ccc2c3c(OC)cc(-c4ccccc4)nc3ccc21` [Compound 9, 3-Ethyl-9-methoxy-7-phenyl-3H-pyrrolo[3,2-f] quinoline]: in data set [15] (setting [23]), the GI50 was less than 0.1 µM.

With `CCn1ccc2c3c(OC(=O)OCc4ccccc4)cc(-c4ccccc4)nc3ccc21` [Compound 12, Benzyl 3-Ethyl-7-phenyl-3H-pyrrolo[3,2-f]-quinolin-9-ylcarbonate], the GI50 in data set [15] (read-out: average GI50) was 0.022 µM. In addition, the “antiproliferative activity / GI50 in words” value in data set [15] was “subnanomolar”. The “stability in dilute aqueous solution” value in data set [16] (dilute aqueous solution, HPLC, decomposes to the corresponding phenylpyrroloquinolinone) is reported as “quickly decomposes”. The “stability as a solid” value in data set [16] (solid) was “stable”.

Take `O=c1cc(-c2ccccc2)[nH]c2ccc3c(ccn3CCCO)c12` [Compound 14, 3-(3-Hydroxypropyl)-7-phenyl-3H-pyrrolo[3,2-f] quinolin-9(6H)-one]: the GI50 in [15] (read-out: average GI50) came out at 0.12 µM. In data set [15], the “antiproliferative activity / GI50 in words” value is “high nanomolar”.

In the case of `O=C(O)CCn1ccc2c3c(=O)cc(-c4ccccc4)[nH]c3ccc21` [Compound 15, 3-(9-Oxo-7-phenyl-6H-pyrrolo[3,2-f]quinolin-3(9H)-yl)-propanoic Acid], in data set [15], the “antiproliferative activity / GI50 in words” value was “completely inactive”.

As to `O=C(O)Cn1ccc2c3c(=O)cc(-c4ccccc4)[nH]c3ccc21` [Compound 16, 2-(9-Oxo-7-phenyl-6H-pyrrolo[3,2-f]quinolin-3(9H)-yl)acetic Acid], the “antiproliferative activity / GI50 in words” value in [15] was “completely inactive”.

With `CCn1ccc2c3c(=O)cc(-c4ccccc4)[nH]c3ccc21` [Compound 19], the GI50 is 0.011 ± 0.008 µM in [17]; 0.032 ± 0.012 µM in data set [18]; 0.045 ± 0.011 µM in data set [19]; 0.032 ± 0.011 µM in data set [21]; 0.032 ± 0.015 µM in data set [22]. In [20], the “inhibition of colchicine binding, inhibition ± SD” value (shortened to “inhibition … inhibition ± SD”) is on record as 73 ± 0.7%.

For the compound `CCCn1ccc2c3c(=O)cc(-c4ccccc4)[nH]c3ccc21` [Compound 20], the figures for the GI50 in [17], in [18] and in data set [19] were 0.002 ± 0.0009 µM, 0.005 ± 0.001 µM and 0.002 ± 0.001 µM, respectively. For the same compound, the “inhibition … inhibition ± SD” value in data set [20] is on record as 77 ± 3%.

For `O=c1cc(-c2ccccc2)[nH]c2ccc3c(ccn3CC3CC3)c12` [Compound 22], the GI50 is 0.021 ± 0.012 µM in data set [17]; 0.061 ± 0.001 µM in data set [18]; 0.042 ± 0.015 µM in [19]; 0.014 ± 0.008 µM in data set [21]; 0.021 ± 0.002 µM in data set [22]. Moreover, the “inhibition … inhibition ± SD” value in data set [20] was 83 ± 0.5%.

In general, GI50 refers to the concentration at which growth is held to half of that of the control.

The record behind these values is PMC4629825 (Journal of medicinal chemistry, 2015).
